Reference: patent US20100298141A1, “SUBSTITUTED PYRIDINE N-OXIDE HERBICIDES” (E. I. DU PONT DE NEMOURS AND COMPANY, priority 2007, published 2010)

What was measured:
canarygrass = test: Test C postemergence test; format: in vivo, Phalaris minor; details: for Plant response rating (0 to 100), Canarygrass: 31 g ai/ha; for Plant response rating, Canarygrass: scale 0 to 100, 0 no effect, 100 complete control
Protocol: (§1) At the same time, plants selected from these crop and weed species and also winter barley (Hordeum vulgare), canarygrass (Phalaris minor), and chickweed (Stellaria media) were treated with postemergence applications of some of the test chemicals formulated in the same manner. Plants ranged in height from 2 to 18 cm (1- to 4-leaf stage) for postemergence treatments. […] At time of treatment, test pots were flooded to 3 cm above the soil surface, treated by application of test compounds directly to the paddy water, and then maintained at that water depth for the duration of the test. Treated plants and controls were maintained in a greenhouse for 13 to 15 days, after which time all species were compared to controls and visually evaluated. […] A dash (-) response means no test result.

winter barley = test: Test C postemergence test; format: in vivo, Hordeum vulgare; details: for Plant response rating (0 to 100), Barley: 31 g ai/ha; for Plant response rating, Barley: scale 0 to 100, 0 no effect, 100 complete control
Protocol: as §1

chickweed = test: Test C postemergence test; format: in vivo, Stellaria media; details: for Plant response rating (0 to 100), Chickweed: 31 g ai/ha; for Plant response rating, Chickweed: scale 0 to 100, 0 no effect, 100 complete control
Protocol: as §1

common sowthistle = test: Test F preemergence test; format: in vivo, Sonchus oleraceous; details: scale 0 to 100
Description: (§2) Seeds of plant species selected from bermudagrass (Cynodon dactylon), Surinam grass (Brachiaria decumbens), large crabgrass (Digitaria sanguinalis), green foxtail (Setaria viridis), goosegrass (Eleusine indica), johnsongrass (Sorghum halepense), kochia (Kochia scoparia), pitted morningglory (Ipomoea lacunosa), purple nutsedge (Cyperus rotundus), common ragweed (Ambrosia elation), mustard (Brassica nigra), guineagrass (Panicum maximum), […] (Paspalum dilatatum), barnyardgrass (Echinochloa crus-galli), southern sandbur (Cenchrus echinatus), common sowthistle (Sonchus oleraceous), prickly […] spinosa), Italian ryegrass (Lolium multiflorum), common purslane (Portulaca oleracea), broadleaf signalgrass (Brachiaria platyphylla), common groundsel (Senecio vulgaris), common chickweed (Stellaria media), Virginia dayflower (Commelina virginica), annual bluegrass (Poa annua), naked crabgrass (Digitaria nuda), […] cochinchinensis), quackgrass (Elytrigia repens), Canada horseweed (Conyza canadensis), field bindweed (Convolvulus arvensis), […] (Bidens bipinnata), common mallow (Malva sylvestris), Russian thistle (Salsola kali), and sugarcane (Saccharum officinarum) were planted and treated preemergence with test chemicals formulated in a non-phytotoxic solvent mixture which included a surfactant. At a different time, sugarcane was treated with postemergence applications of some of the test chemicals formulated in the same manner. Plants were approximately 3- to 4-leaf stage for the postemergence treatments. Treated plants and controls were maintained in a greenhouse for 14 to 21 days, after which time all species were compared to controls and visually evaluated. […] A dash (-) response means no test result.

Russian thistle = test: Test F preemergence test; format: in vivo, Salsola kali; details: scale 0 to 100
Description: as §2

common chickweed = test: Test F preemergence test; format: in vivo, Stellaria media; details: scale 0 to 100
Description: as §2

windgrass = test: Test C pre-/postemergence test; format: in vivo, Apera spica-venti; details: Postemergence; for Plant response rating, Windgrass: scale 0 to 100, 0 no effect, 100 complete control
Description: Seeds of plant species selected from blackgrass (Alopecurus myosuroides), downy brome (Bromus tectorum), green foxtail (Setaria viridis), Italian ryegrass (Lolium multiflorum), wheat (Triticum aestivum), wild oat (Avena fatua), catchweed bedstraw (Galium aparine), Russian thistle (Salsola kali), […] (Cynodon dactylon), Surinam grass (Brachiaria decumbens), cocklebur (Xanthium strumarium), corn (Zea mays), crabgrass (Digitaria sanguinalis), woolly cupgrass (Eriochloa villosa), giant foxtail (Setaria faberii), Goosegrass (Eleusin indica), johnsongrass (Sorghum halepense), kochia (Kochia scoparia), lambsquarters (Chenopodium album), morningglory (Ipomoea coccinea), eastern black nightshade (Solanum ptycanthum), yellow nutsedge (Cyperus esculentus), pigweed (Amaranthus retroflexus), common ragweed (Ambrosia elation), soybean (Glycine max), common (oilseed) sunflower (Helianthus annuus), and velvetleaf (Abutilon theophrasti) were planted and treated preemergence with test chemicals formulated in a non-phytotoxic solvent mixture which included a surfactant. At the same time, plants selected from these crop and weed species and also winter barley (Hordeum vulgare), canarygrass (Phalaris minor), and chickweed (Stellaria media) were treated with postemergence applications of some of the test chemicals formulated in the same manner. Plants ranged in height from 2 to 18 cm (1- to 4-leaf stage) for postemergence treatments. […] At time of treatment, test pots were flooded to 3 cm above the soil surface, treated by application of test compounds directly to the paddy water, and then maintained at that water depth for the duration of the test. […] A dash (-) response means no test result.

Canada horseweed = test: Test F preemergence test; format: in vivo, Conyza canadensis; details: scale 0 to 100
Description: as §2

spanishneedles = test: Test F preemergence test; format: in vivo, Bidens bipinnata; details: scale 0 to 100; for Spanishneedles plant response rating: 125 g ai/ha
Description: as §2

Row | SMILES | Plant response rating (0 to 100), Canarygrass (canarygrass) | Plant response rating, Canarygrass (canarygrass; 62 g ai/ha) | Plant response rating, Canarygrass (canarygrass; 125 g ai/ha) | Plant response rating, Canarygrass (canarygrass; 250 g ai/ha) | Plant response rating (0 to 100), Barley (winter barley) | Plant response rating, Barley (winter barley; 62 g ai/ha) | Plant response rating, Barley (winter barley; 125 g ai/ha) | Plant response rating, Barley (winter barley; 250 g ai/ha) | Plant response rating (0 to 100), Chickweed (chickweed) | Plant response rating, Chickweed (chickweed; 62 g ai/ha) | Plant response rating, Chickweed (chickweed; 125 g ai/ha) | Plant response rating, Chickweed (chickweed; 250 g ai/ha) | Plant response rating, Sowthistle (common sowthistle; 16 g ai/ha, preemergence) | Sowthistle plant response rating (common sowthistle; 62 g ai/ha, Preemergence) | Plant response rating, Sowthistle (common sowthistle; Preemergence, 31 g ai/ha) | Chickweed plant response rating (common chickweed; 62 g ai/ha, Preemergence) | Plant response rating, Chickweed (common chickweed; Preemergence, 16 g ai/ha) | Plant response rating, Chickweed (common chickweed; Preemergence, 31 g ai/ha) | Plant response rating (0 to 100), Windgrass (windgrass; 31 g ai/ha) | Plant response rating (0 to 100), Windgrass (windgrass; 62 g ai/ha) | other results
1 | CC(c1c(C(F)(F)F)nn(C)c1OC(F)F)S(=O)(=O)c1cccc[n+]1[O-] (stereo not drawn) [Compound 5] | 0 | 0 | 0 | 0 | 0 | 0 | 20 | 20 | 0 | 0 | 10 | 85 | 100 | 100 | 100 | 100 | 100 | 100 | 30 | 60 | Plant response rating, Sowthistle (common sowthistle; 8 g ai/ha, preemergence): 100; Plant response rating, Russian Thistle (Russian thistle; 8 g ai/ha, preemergence): 0; Russian Thistle plant response rating (Russian thistle; 62 g ai/ha, Preemergence): 60; Plant response rating, Russian Thistle (Russian thistle; Preemergence, 16 g ai/ha): 0; Plant response rating, Russian Thistle (Russian thistle; Preemergence, 31 g ai/ha): 0; Plant response rating, Chickweed (common chickweed; 8 g ai/ha, preemergence): 100; Plant response rating, Windgrass (windgrass; 125 g ai/ha): 70; Plant response rating, Windgrass (windgrass; 250 g ai/ha): 75
2 | Cn1nc(C(F)(F)F)c(C[S+]([O-])c2ccc(Cl)c[n+]2[O-])c1OC(F)F (stereo not drawn) [Compound 6] | 0 | 0 | 0 | 10 | 0 | 0 | 0 | 0 | 0 | 40 | 85 | 95 | 0 | 90 | 50 | 100 | 100 | 100 | 50 | 98 | Plant response rating, Sowthistle (common sowthistle; 8 g ai/ha, preemergence): 0; Plant response rating, Russian Thistle (Russian thistle; 8 g ai/ha, preemergence): 0; Plant response rating, Russian Thistle (Russian thistle; Preemergence, 16 g ai/ha): 0; Plant response rating, Russian Thistle (Russian thistle; Preemergence, 31 g ai/ha): 0; Plant response rating, Chickweed (common chickweed; 8 g ai/ha, preemergence): 80; Plant response rating, Windgrass (windgrass; 125 g ai/ha): 100; Plant response rating, Windgrass (windgrass; 250 g ai/ha): 100
3 | Cn1nc(C(F)(F)F)c(C[S+]([O-])c2cccc[n+]2[O-])c1Cl (stereo not drawn) [Compound 8] | – | – | – | – | – | – | – | – | – | – | – | – | – | 90 | 65 | 95 | 0 | 60 | – | – | Horseweed plant response rating (Canada horseweed; 62 g ai/ha, Preemergence): 100; Horseweed plant response rating (Canada horseweed; 125 g ai/ha, preemergence): 100; Plant response rating, Horseweed (Canada horseweed; Preemergence, 16 g ai/ha): 0; Plant response rating, Horseweed (Canada horseweed; Preemergence, 31 g ai/ha): 0; Sowthistle plant response rating (common sowthistle; 125 g ai/ha, preemergence): 100; Russian Thistle plant response rating (Russian thistle; 125 g ai/ha, preemergence): 100; Chickweed plant response rating (common chickweed; 125 g ai/ha, preemergence): 98
4 | Cc1cc[n+]([O-])c(S(=O)(=O)C(C)c2c(C(F)(F)F)nn(C)c2OC(F)F)c1 (stereo not drawn) [Compound 11] | – | – | – | – | – | – | – | – | – | – | – | – | – | 100 | 90 | 100 | 70 | 80 | – | – | Horseweed plant response rating (Canada horseweed; 125 g ai/ha, preemergence): 100; Sowthistle plant response rating (common sowthistle; 125 g ai/ha, preemergence): 100; Russian Thistle plant response rating (Russian thistle; 62 g ai/ha, Preemergence): 100; Russian Thistle plant response rating (Russian thistle; 125 g ai/ha, preemergence): 100; Plant response rating, Russian Thistle (Russian thistle; Preemergence, 31 g ai/ha): 100; Chickweed plant response rating (common chickweed; 125 g ai/ha, preemergence): 100
5 | Cn1nc(C(F)(F)F)c(C[S+]([O-])c2ccc(F)c[n+]2[O-])c1OCC(F)(F)F (stereo not drawn) [Compound 67] | 0 | 0 | 10 | 10 | 0 | 10 | 50 | 50 | 0 | 60 | 70 | 95 | 80 | – | 80 | 100 | – | 40 | 30 | 100 | Plant response rating, Horseweed (Canada horseweed; 16 g ai/ha, preemergence): 0; Horseweed plant response rating (Canada horseweed; 62 g ai/ha, Preemergence): 100; Horseweed plant response rating (Canada horseweed; 125 g ai/ha, preemergence): 100; Plant response rating, Horseweed (Canada horseweed; Preemergence, 31 g ai/ha): 0; Plant response rating, Spanishneedles (spanishneedles; 16 g ai/ha, preemergence): 0; Spanishneedles plant response rating (spanishneedles; preemergence): 98; Plant response rating, Spanishneedles (spanishneedles; Preemergence, 62 g ai/ha): 90; Plant response rating, Spanishneedles (spanishneedles; Preemergence, 31 g ai/ha): 65; Sowthistle plant response rating (common sowthistle; 125 g ai/ha, preemergence): 100; Plant response rating, Sowthistle (common sowthistle; Preemergence, 62 g ai/ha): 100; Chickweed plant response rating (common chickweed; 125 g ai/ha, preemergence): 100; Plant response rating, Windgrass (windgrass; 125 g ai/ha): 100; Plant response rating, Windgrass (windgrass; 250 g ai/ha): 100
6 | Cn1nc(C(F)(F)F)c(C[S+]([O-])c2ccc(Cl)c[n+]2[O-])c1OCC(F)(F)F (racemic) [Compound 62] | 0 | 0 | 0 | 10 | 0 | 0 | 10 | 40 | 0 | 0 | 0 | 70 | 0 | – | 95 | 100 | – | 100 | 70 | 80 | Plant response rating, Horseweed (Canada horseweed; 16 g ai/ha, preemergence): 0; Horseweed plant response rating (Canada horseweed; 62 g ai/ha, Preemergence): 100; Horseweed plant response rating (Canada horseweed; 125 g ai/ha, preemergence): 100; Plant response rating, Horseweed (Canada horseweed; Preemergence, 31 g ai/ha): 100; Plant response rating, Spanishneedles (spanishneedles; 16 g ai/ha, preemergence): 30; Spanishneedles plant response rating (spanishneedles; preemergence): 100; Plant response rating, Spanishneedles (spanishneedles; Preemergence, 62 g ai/ha): 75; Plant response rating, Spanishneedles (spanishneedles; Preemergence, 31 g ai/ha): 65; Sowthistle plant response rating (common sowthistle; 125 g ai/ha, preemergence): 98; Plant response rating, Sowthistle (common sowthistle; Preemergence, 62 g ai/ha): 98; Plant response rating, Chickweed (common chickweed; 16 g ai/ha, preemergence): 100; Chickweed plant response rating (common chickweed; 125 g ai/ha, preemergence): 100; Plant response rating, Windgrass (windgrass; 125 g ai/ha): 90; Plant response rating, Windgrass (windgrass; 250 g ai/ha): 100
